{"source": "patent US20100297261A1", "about": "“Food Product and Fortification System Therefor” (priority 2005, published 2010)", "key": {"[1]": {"conditions": "guinea pigs; split by α-glucosidase in brush border of small intestine; cited from earlier work"}, "[2]": {"conditions": "humans; split by hydrolases in the small intestine; cited from earlier work"}, "[3]": {"experiment": "In vitro estimation of iron dialyzability (dough, simulated gastrointestinal conditions)", "description": "All glass vessels used were incubated over night in 10% (v/v) HNO3 in water and subsequently rinsed with demineralised water. […] The dough was divided in portions of 16 g and stored at −20° C. until dissolution experiments took place.\nThe dough portions were suspended in water and homogenized for 10 s with a Braun Blender (type 4142) set at maximum speed. Subsequently, water, 0.45 g pepsin and HCl were added to a yield a 90 ml suspension of dough in simulated gastric fluid of pH 2.0. A 20 g sample was taken from the homogenous suspension for determination of total iron. The suspension was transferred to the vessel of a dissolution apparatus (VanK1 VK700, Varian; United States Pharmacopoeia (USP) dissolution apparatus, type II. Conditions for rotations per minute enzyme types and concentrations etc. taken as in the USP; <711> Dissolution; USP26/NF21; 2003; p. 1578-1579). […]\nDialyzable iron (sum of Fe^2+ and Fe^3+) was determined using a Hitachi 912 Analyser and reagents for the analysis of iron in human serum based on FerroZine (Roche Diagnostics Nederland BV). […]\nDialyzable iron is expressed as the percentage of the total iron present in the digest, assuming that it had equilibrated across the dialysis membrane by the time the content of the dialysis bag was collected."}}}
{"smiles": "O=C1O[C@H]([C@@H](O)CO)C(O)=C1O[C@H]1O[C@H](CO)[C@@H](O)[C@H](O)[C@H]1O", "note": "[AA-2G, 2-O-α-D-glucopyranosyl-L-ascorbic acid]", "values": [{"measurement": "Intestinal absorption of intact compound", "setting": "[1]", "result": "cannot be absorbed"}, {"measurement": "Free ascorbic acid in the blood after consumption", "setting": "[2]", "result": "significant increase in free ascorbic acid in the blood"}]}
{"smiles": "O=S(=O)([O-])[O-].[Fe+2]", "note": "[Ferrous sulphate, ferrous sulphate]", "values": [{"measurement": "In vitro dialyzable Ionic iron (% of total iron)", "setting": "[3]; dough with 50 mg/Kg iron from ferrous sulphate, Fe:enhancer 1:3, means ± SD of 4 or 5 experiments", "result": "3.4 ± 1.8 % of total iron"}, {"measurement": "Relative availability", "setting": "[3]; relative to the availability of iron from FeSO4", "result": 1.0}]}
